Key:
Homo sapiens [1] = species: Homo sapiens; experiment: (§1) Selectivity index, ratio of inhibition of full length human JNK1 (M1 to Q384 residues) expressed in mammalian expression system assessed as residual percent of control binding at 100 nM relative to control to inhibition of partial length human MKK4 (S84 to D399 residues) expressed in mammalian expression system assessed as residual percent of control binding at 100 nM relative to control
Homo sapiens [2] = species: Homo sapiens; experiment: Selectivity index, ratio of inhibition of B-raf (unknown origin) to inhibition of partial length human MKK4 (S84 to D399 residues) expressed in mammalian expression system assessed as residual percent of control binding at 100 nM relative to control
Homo sapiens [3] = species: Homo sapiens; experiment: as §1, with “MKK7” for “JNK1”, “R419” for “Q384”

Measured: Selectivity ratio

CS(=O)(=O)Nc1ccc(F)c(C(=O)c2ccc3[nH]c4ncc(-c5ccc(S(N)(=O)=O)cc5)cc4c3c2)c1F
> 30: Homo sapiens [1] | Homo sapiens [2] | Homo sapiens [3]

CCCS(=O)(=O)Nc1ccc(F)c(C(=O)c2ccc3[nH]c4ncc(-c5ccc(C(=O)NCC(O)CO)nc5)cc4c3c2)c1F (configuration not stated)
> 30: Homo sapiens [1] | Homo sapiens [2] | Homo sapiens [3]

CS(=O)(=O)Nc1c(F)ccc(C(=O)c2ccc3[nH]c4ncc(Cl)cc4c3c2)c1F
> 30: Homo sapiens [1] | Homo sapiens [2] | Homo sapiens [3]

CCCS(=O)(=O)Nc1ccc(F)c(C(=O)c2ccc3[nH]c4ncc(-c5ccc(N)nc5)cc4c3c2)c1F
> 30: Homo sapiens [1] | Homo sapiens [2] | Homo sapiens [3]

CCCS(=O)(=O)Nc1ccc(F)c(C(=O)c2ccc3[nH]c4ncc(-c5ccc(OCC(O)CO)cc5)cc4c3c2)c1F (configuration not stated)
> 30: Homo sapiens [1] | Homo sapiens [2] | Homo sapiens [3]

CCCS(=O)(=O)Nc1ccc(F)c(C(=O)c2ccc3[nH]c4ncc(-c5ccc(C(=O)O)cc5)cc4c3c2)c1F
> 30: Homo sapiens [1] | Homo sapiens [2] | Homo sapiens [3]

CCCS(=O)(=O)Nc1ccc(F)c(C(=O)c2ccc3[nH]c4ncc(-c5ccc(S(=O)(=O)NCC(O)CO)nc5)cc4c3c2)c1F (configuration not stated)
> 30: Homo sapiens [1] | Homo sapiens [2] | Homo sapiens [3]

CCCS(=O)(=O)Nc1cccc(C(=O)c2ccc3[nH]c4ncc(Cl)cc4c3c2)c1F
> 30: Homo sapiens [1] | Homo sapiens [2] | Homo sapiens [3]

CCCS(=O)(=O)Nc1ccc(F)c(C(=O)c2ccc3[nH]c4ncc(-c5ccc(S(N)(=O)=O)cc5)cc4c3c2)c1F
> 30: Homo sapiens [1] | Homo sapiens [2] | Homo sapiens [3]

CCCS(=O)(=O)Nc1ccc(F)c(C(=O)c2ccc3[nH]c4ncc(-c5ccc(-c6nnn[nH]6)cc5)cc4c3c2)c1F
> 30: Homo sapiens [1] | Homo sapiens [2] | Homo sapiens [3]

CCCS(=O)(=O)Nc1ccc(F)c(C(=O)c2ccc3[nH]c4ncc(-c5ccc(C(N)=O)cc5)cc4c3c2)c1F
> 30: Homo sapiens [1] | Homo sapiens [2] | Homo sapiens [3]

CCS(=O)(=O)Nc1ccc(F)c(C(=O)c2ccc3[nH]c4ncc(-c5ccc(S(N)(=O)=O)cc5)cc4c3c2)c1F
> 30: Homo sapiens [1] | Homo sapiens [2] | Homo sapiens [3]

CCCS(=O)(=O)Nc1ccc(F)c(C(=O)c2ccc3[nH]c4ncc(Cl)cc4c3c2)c1F
> 30: Homo sapiens [1] | Homo sapiens [2] | Homo sapiens [3]

CCCS(=O)(=O)Nc1ccc(F)c(C(=O)c2ccc3[nH]c4ncc(-c5ccncc5)cc4c3c2)c1F
> 30: Homo sapiens [1] | Homo sapiens [2] | Homo sapiens [3]
